Results taken from patent US20020107401A1, “Production of phosphonopyrazoles” (MONSNTO TECHNOLOGY LLC., priority 2000, published 2002).

Tested on: wheat variety 'OSLO'
Test: Chemical hybridizing agent assay for male sterility (male gametocidal activity), foliar spray, seed counts
Assay type: in vivo
Description: The compounds of structure 3 and analogs are applied at a rate of 50-1000 μg/plant to cause pollen sterility. The male gametocidal activity is determined on the wheat variety ‘OSLO’, a double-dwarf hard red spring wheat. The wheat seed is planted to a depth of 0.5 to 1 inch (1-2.5 cm) in a 6-inch long (15 cm) conetainer (a cone shaped container, one seed per conetainer). The conetainers are filled with Metromix 200 potting soil supplemented with a slow release fertilizer, Osmocote and Sierra combined at 93 g/cu ft soil for a NPK of 31-20-24. Micromax with micronutrients is added at 17 g/cu ft rate. Fertilizer supplier is Hummerts, Earth City, Mo. 63045. The RLC-4 conetainers are 1×6 inch (2.5×15 cm) with a capacity of 4 cu in. (Stuewe & Sons, Inc., Corvallis, Oreg., 97333-9461). These are loaded into racks of 100 that occupy a 1.0 ft by 1.0 ft area. After seeding, the racks are placed in growth chambers with 14/10 hour day/night cycle at 18° C. These chambers are equipped with metal halide lamps that deliver approximately 300 μE/m^2/sec. Humidity is maintained at 50%, and plants are watered as needed. Approximately six weeks after seeding, wheat plants are selected for chemical application at or just prior to flag-leaf emergence from the boot (Feekes Scale 7.5-8.0) (Large, 1954. Plant Pathology 3:128-129). Plants are placed in a rack containing cardboard dividers to prevent each from being cross contaminated by an adjacent spray. The following procedures are used to evaluate the activity of the compounds of the invention for inducing male sterility in cereals. The plant heights vary and as uniformity is required for chemical application, the top 0-10 cm are removed by excision, such that the plant height is flush with the top of the divider. Prior to application, a 50 mL solution of DMSO (dimethylsulfoxide) containing the chemical hybridizing agent is diluted with 150 mL of water containing 1% SILWET L-77 surfactant (Witco Corp., Greenwich, Conn. 06831-2559) plus 2% humectant (glycerin, supplied by VWR Scientific Products Co.). The formulated chemicals are applied foliarly as an atomized spray onto the plants. After application, the plants are moved into growth chambers and allowed to grow until the heads emerge from the boot. Prior to anther extrusion (approximately 10 to 14 days after treatment), the plants are placed back into dividers in order to isolate the seed heads and to prevent cross-pollination. The plants are moved to a greenhouse, which has similar environmental conditions as the growth chambers. Approximately one week later (3 weeks after treatment (WAT) and at anther extrusion), open head morphology ratings are initiated. Plants are rated four times over a period of eight days (Table 2). The chemical hybridizing agent Genesis® (a registered Trade Mark of the Monsanto Co) is used as the positive control and for comparative purposes as to the rate of application and the efficacy as determined by percent sterility. The negative control is treatment of the wheat plants with the compounds making up the formulation of surfactant and humectant without the chemical compositions being assayed as chemical hybridizing agents. The data in Table 2 is expressed as % Sterility=(1-(Ave. normalized seed counts of sample/Ave. normalized seed counts of controls))*100 with the treatments comprising foliar application and rate titration at Feekes stage 8, across five replicates. Approximately two weeks after open head ratings are completed (six WAT), seed counts are collected.

[1] = Table 2, rate 50 μg/plant, foliar, Feekes 8
[2] = Table 2, rate 125 μg/plant, foliar, Feekes 8
[3] = Table 2, rate 250 μg/plant, foliar, Feekes 8
[4] = Table 2, rate 500 μg/plant, foliar, Feekes 8
[5] = Table 2, rate 1000 μg/plant, foliar, Feekes 8
[6] = Table 2, rate 50 μg/plant, foliar, Feekes 6
[7] = Table 2, rate 125 μg/plant, foliar, Feekes 6
[8] = Table 2, rate 250 μg/plant, foliar, Feekes 6
[9] = Table 2, rate 500 μg/plant, foliar, Feekes 6

Compound	Sterility (%) [1] [%]	Sterility (%) [2] [%]	Sterility (%) [3] [%]	Sterility (%) [4] [%]	Sterility (%) [5] [%]	Sterility (%) [6] [%]	Sterility (%) [7] [%]	Sterility (%) [8] [%]	Sterility (%) [9] [%]	further results
COP(=O)(OC)c1cnn(-c2ccccc2Cl)c1O [Compound 3c, Dimethyl [1-(2-chlorophenyl)-5-hydroxy-1H-pyrazol-4-yl]phosphonate]	25	29	18	53	36					
CCn1cc(P(=O)(OC)OC)c(=O)n1-c1ccc(Cl)cc1 [Compound 5a, Dimethyl [2-(4-chlorophenyl)-2,3-dihydro-1-ethyl-3-oxo-pyrazol-4-yl]phosphonate]										Sterility (%) (Table 4, rate 50 μg/plant): 11%; Sterility (%) (Table 4, rate 125 μg/plant): 26%; Sterility (%) (Table 4, rate 250 μg/plant): 66%; Sterility (%) (Table 4, rate 500 μg/plant): 29%; Sterility (%) (Table 4, rate 1000 μg/plant): 10%
methyl potassium[4-chlorophenyl-3-hydroxy-1H-pyrazol-4-yl]phosphonate [Compound 3m]	28	20	16	15		23	0	31	43	
COP(=O)([O-])c1cnn(-c2cc(C)cc(C)c2)c1O.[K+] [Compound 3l, methyl potassium[2-(3,5-dimethylphenyl)-3-hydroxy-1H-pyrazol-4-yl]phosphonate]	12	28	24	39		0	17	39	54	
CCn1cc(P(=O)(OC)OC)c(=O)n1-c1cc(C)cc(C)c1 [Compound 5c, Dimethyl[2-(3,5-dimethylphenyl)-2,3-dihydro-1-ethyl-3-oxo-pyrazol-4-yl]phosphonate]										Sterility (%) (Table 4, rate 50 μg/plant): 8%; Sterility (%) (Table 4, rate 125 μg/plant): 1%; Sterility (%) (Table 4, rate 250 μg/plant): 16%; Sterility (%) (Table 4, rate 500 μg/plant): 48%; Sterility (%) (Table 4, rate 1000 μg/plant): 31%
O=P(O)(O)C1=CNN(c2ccc(Cl)cc2)C1O (stereo not drawn) [Compound 3j, 2-(4-Chlorophenyl)-3-hydroxy-1H-pyrazol-4-yl phosphonic acid]	31	13	0	12		4	7	0	35	
CCCCn1cc(P(=O)(OC)OC)c(=O)n1-c1cc(C)cc(C)c1 [Compound 5d, Dimethyl[1-butyl-2-(3,5-dimethylphenyl)-2,3-dihydro-3-oxo-pyrazol-4-yl]phosphonate]										Sterility (%) (Table 4, rate 50 μg/plant): 29%; Sterility (%) (Table 4, rate 125 μg/plant): 0%; Sterility (%) (Table 4, rate 250 μg/plant): 28%; Sterility (%) (Table 4, rate 500 μg/plant): 24%; Sterility (%) (Table 4, rate 1000 μg/plant): 41%
COP(=O)(OC)c1cn(C2CCCCC2)n(-c2ccc(Cl)cc2)c1=O [Compound 5b, Dimethyl[2-(4-chlorophenyl)-1-cyclohexyl-2,3-dihydro-3-oxo-pyrazol-4-yl]phosphonate]										Sterility (%) (Table 4, rate 50 μg/plant): 0%; Sterility (%) (Table 4, rate 125 μg/plant): 14%; Sterility (%) (Table 4, rate 250 μg/plant): 20%; Sterility (%) (Table 4, rate 500 μg/plant): 23%; Sterility (%) (Table 4, rate 1000 μg/plant): 62%
COP(=O)(OC)c1cnn(-c2ccc(Br)cc2)c1O [Compound 3d, Dimethyl [1-(4-bromophenyl)-5-hydroxy-1H-pyrazol-4-yl]phosphonate]	0	0	17	15	54					
COP(=O)(OC)c1cnn(-c2ccc(Cl)cc2)c1OCc1ccc(Cl)cc1 [Compound 4a, Dimethyl{1-(4-Chlorophenyl)-5-[(4-chlorobenzyl)oxy]-1H-pyrazol-4-yl}phosphonate]	48	80	93	93		0	0	9	34	
COP(=O)(OC)c1cnn(-c2ccc(Cl)cc2)c1O [Compound 3a, Dimethyl [1-(4-chlorophenyl)-5-hydroxy-1H-pyrazol-4-yl]phosphonate]	39	34	79	92		27	0	0	49	
COP(=O)(OC)c1cnn(-c2ccc(F)cc2)c1O [Compound 3b, Dimethyl [1-(4-fluorophenyl)-5-hydroxy-1H-pyrazol-4-yl]phosphonate]	23	30	90	91	98					
COP(=O)(OC)c1c(-c2ccccc2)nn(-c2cc(C)cc(C)c2)c1O [Compound 10b, Dimethyl[1-(3,5-dimethylphenyl)-5-hydroxy-3-phenyl-1H-pyrazol-4-yl]phosphonate]	5	0	11	33	45					
COP(=O)(OC)c1cnn(-c2ccc(Cl)cc2)c1OCc1ccccc1[N+](=O)[O-] [Compound 4b, Dimethyl{1-(4-chlorophenyl)-5-[(2-nitrobenzyl)oxy]-1H-pyrazol-4-yl}phosphonate]	16	0	57	94		0	0	0	0	
COP(=O)(OC)c1cnn(C2CCCCC2)c1O [Compound 3e, Dimethyl [1-cyclohexyl-5-hydroxy-1H-pyrazol-4-yl]phosphonate]	15	3	17	26	44					
Cc1cc(C)cc(-n2ncc(P(=O)([O-])O)c2O)c1.[K+] [Compound 3n, hydrogen potassium[2-(3,5-dimethylphenyl)-3-hydroxy-1H-pyrazol-4-yl]phosphonate]	15	11	4	20		7	7	10	31	
COP(=O)(OC)c1c(-c2ccccc2)nn(-c2ccc(Cl)cc2)c1O [Compound 10a, Dimethyl [1-(4-chlorophenyl)-5-hydroxy-3-phenyl-1H-pyrazol-4-yl]phosphonate]	1	0	27	18	45					
COP(=O)(OC)c1cn(-c2ccc(Br)cc2)nc1O [Compound 8a, Dimethyl [1-(4-bromophenyl)-3-hydroxy-1H-pyrazol-4-yl]phosphonate]										Sterility (%) (Table 3, rate 50 μg/plant): 12%; Sterility (%) (Table 3, rate 125 μg/plant): 0%; Sterility (%) (Table 3, rate 250 μg/plant): 44%; Sterility (%) (Table 3, rate 500 μg/plant): 25%; Sterility (%) (Table 3, rate 1000 μg/plant): 15%
